Experimental data published in paper PMC6212398, “Competing protein-protein interactions regulate binding of Hsp27 to its client protein tau” (Nature Communications, 2018).
pIC50, pKd: −log10 of the molar value. “Also recorded” adds a separate entry of the source. Values belong to the substance of their own block, whether it stands above or below them. Ends that are not written are not given here.

Legend:
Hsp27 WT = target: T1, Hsp27 WT (Homo sapiens, UniProt P04792); assay: ITC of optimized IPV peptide with Hsp27 WT; format: binding; conditions: Fig. 4b, peptide (1 mM) into full-length Hsp27 WT (100 µM), 25 °C, mean ± SEM, minimum of three independent experiments
T1 construct: Vectors for the expression of full-length human Hsp27; made in house; host or cells: E. coli BL21 (DE3)
T1 sequence (P04792 whole entry): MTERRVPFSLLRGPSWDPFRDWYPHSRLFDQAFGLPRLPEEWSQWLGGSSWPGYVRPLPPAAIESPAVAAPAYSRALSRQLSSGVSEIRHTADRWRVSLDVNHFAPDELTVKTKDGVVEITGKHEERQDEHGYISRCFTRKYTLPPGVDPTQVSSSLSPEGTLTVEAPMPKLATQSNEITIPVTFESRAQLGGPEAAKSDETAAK
Description: (§1) For experiments with BAG3, proteins were dialyzed overnight against ITC buffer (25 mM Hepes, 5 mM MgCl2, 100 mM KCl, pH 7.5). For experiments with peptides, sHSPs were dialyzed overnight against SEC buffer, and peptides were dissolved in dialysis buffer. Concentrations were determined using BCA assays (Thermo Scientific), and the ITC experiment was performed with a MicroCal ITC200 (GE Healthcare) at 25 °C. In BAG3 experiments, sHSP (200 µM) in the syringe was titrated into a 10 μM cell solution of BAG3 protein. For peptide binding experiments, peptide (1 mM) was titrated into a cell containing Hsp27 proteins (100 µM). Calorimetric parameters were calculated using Origin® 7.0 software and fit with a one-site binding model.

Hsp27 3D = target: T2, Hsp27 3D (Homo sapiens, UniProt P04792, S15D/S78D/S82D); assay: ITC of optimized IPV peptide with Hsp27 3D; format: binding; conditions: Fig. 4b, peptide (1 mM) into Hsp27 3D (100 µM), 25 °C, mean ± SEM, minimum of three independent experiments
T2 construct: Sample aggregation curves of tau constructs with full-length Hsp27; made in house; host or cells: E. coli BL21 (DE3)
T2 sequence (P04792 whole entry S15D/S78D/S82D): as the sequence (P04792 whole entry) above, with S15D, S78D, S82D counted along it
Description: as §1

ΔNTD GPG = target: T3, ΔNTD GPG (Homo sapiens, UniProt P04792, I181G/V183G); assay: ITC of optimized IPV peptide with Hsp27 ΔNTD GPG; format: binding; conditions: Fig. 4b, peptide (1 mM) into ΔNTD GPG (100 µM), 25 °C, mean ± SEM, minimum of three independent experiments
T3 construct: For all other Hsp27 constructs (GPG, ΔNTD consisting of residues 80–205); inferred from the PMCSG7 vector and Ni-NTA purification) (N); made in house; host or cells: E. coli BL21 (DE3)
T3 sequence (P04792 80-205 I181G/V183G limits assumed): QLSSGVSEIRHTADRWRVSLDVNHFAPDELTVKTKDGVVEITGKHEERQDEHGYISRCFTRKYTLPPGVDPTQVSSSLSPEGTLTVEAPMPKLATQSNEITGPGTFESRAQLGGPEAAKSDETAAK
Description: as §1

[1] = Thermal shift assay (differential scanning fluorimetry); format: physicochemical; conditions: DSF, 0.3 mg/mL in 50 mM NaPi pH 7.4, 700 mM NaCl, 50 mM LiCl, SYPRO Orange
Description: Samples of Hsp27 (25 µL; 0.3 mg/mL) in DSF buffer (50 mM NaPi pH 7.4, 700 mM NaCl, 50 mM LiCl) with a 5× final concentration of SYPRO Orange (Sigma) were placed into a white 96-well plate with optically clear caps. Melt curves were acquired on a Stratagene Mx300P RT-PCR using the SYPRO filter set. Samples were heated from 25 to 95 °C in 1 °C increments for 2 min, cooled to 25 °C at each cycle, and fluorescence was measured. The melting temperature was determined using a Boltzmann fit in Prism.

K18 tau [2] = assay: 15N K18 HSQC / TROSY-HSQC NMR with unlabeled Hsp27 constructs; format: binding, human; conditions: 50 µM 15N K18, 100 µM Hsp27 construct (2:1), 10 °C, TROSY titration
Description: For ^15N K18 HSQC NMR experiments, all proteins were dialyzed overnight into NMR buffer (25 mM HEPES pH 7.4, 10 mM KCl, 5 mM MgCl2, 1 mM TCEP, 10% (v/v) D2O). Then, samples containing 50 μM ^15N-labeled tau and 50 or 100 μM unlabeled chaperone in NMR buffer were prepared. 2D HSQC spectra were acquired at 10 °C on a Bruker Avance AV800 spectrometer equipped with a cryoprobe. 16 scans were acquired per t1 value and spectral widths of 2100 Hz and 10,416 Hz were used in the ^1H and ^15N dimensions, respectively. Spectra were processed using rNMR and Sparky based on deposited tau assignments (Barre 2013, BioMagResBank accession number 19253). Signal intensity ratios were calculated using Prism, by dividing the intensity of chaperone-bound peaks by intensity of the same peak in the unbound spectra.
The ^15N TROSY HSQC experiments were performed on a Bruker Avance 800 MHz spectrometer equipped with the TXO cryogenic probe at 283 K. The [U-^15N] K18 proteins were dissolved at a concentration of 0.05–0.15 mM in 25 mM Hepes, 10 mM KCl, 5 mM MgCl2, 1 mM TCEP at pH 7.0 and titrated with the Hsp27 proteins in the same buffer. The ^1H–^15N TROSY HSQC experiments were performed with 2048 direct (^1H) and 512 indirect (^15N) points with the spectral width of 16 ppm and 36 ppm, respectively. All NMR spectra were processed by Topspin 3.1, and analyzed with Sparky (Goddard and Kneller, SPARKY 3-NMR Assignment and Integration Software. University of California, San Francisco, CA).

Hsp27 ACD [3] = target: T4, Hsp27 ACD (Homo sapiens, UniProt P04792); assay: NMR titration of VQIVYK peptide into 1H-15N Hsp27 ACD; format: binding; conditions: 1H-15N ACD spectra, 3.3-fold molar excess of peptide (500 µM), Supplementary Figure 3D
T4 construct: Hsp27 ACD (residues Q80–S176); made in house; host or cells: E. coli BL21 (DE3)
T4 sequence (P04792 80-176): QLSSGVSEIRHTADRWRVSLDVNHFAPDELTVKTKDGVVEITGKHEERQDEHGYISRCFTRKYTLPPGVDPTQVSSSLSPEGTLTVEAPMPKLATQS

BAG3 = assay: Interaction of Hsp27 ACD with BAG3 by FCPIA; format: binding; conditions: Supplementary Figure 4
Hsp27 ACD [4] = target: T4, Hsp27 ACD; assay: ITC of IPV-derived peptides with purified Hsp27 ACD; format: binding; conditions: Fig. 1d, 25 °C, one-site model; for N (binding stoichiometry): peptide (1 mM) into Hsp27 ACD (100 µM)
Description: as §1

0N4R tau = assay: Tau aggregation assay (thioflavin T fluorescence), 0N4R; format: biochemical, human; conditions: 10 μM tau, chaperone 1:1 molar ratio (10 μM), heparin 44 µg/mL, 37 °C, Dulbecco's PBS pH 7.4
Description: (§2) Aggregation assays were performed as previously described. Briefly, all proteins were dialyzed overnight at 4 °C into assay buffer (Dulbecco’s PBS pH7.4, 2 mM MgCl2, 1 mM DTT). 0N4R or K18 Tau (10 μM) was pre-incubated in the presence/absence of chaperones (5–20 μM) for 30 min at 37 °C. Thioflavin T (Sigma) at a final concentration of 10 μM was added and aggregation was induced by the addition of a freshly prepared heparin sodium salt solution (Santa Cruz) at a final concentration of 44 µg/mL. For non-induced controls, assay buffer was added in place of heparin solution. The aggregation reaction was carried out at 37 °C with continuous shaking and monitored via Thioflavin T fluorescence (excitation = 444 nm, emission = 485 nm, cutoff = 480 nm) in a Spectramax M5 microplate reader (Molecular Devices). Readings were taken every 5 min for a minimum of 24 h. Baseline curves of non-induced controls (three replicates) were subtracted from induced samples (three replicates).

K18 tau [5] = assay: Tau aggregation assay (thioflavin T fluorescence), K18; format: biochemical, human; conditions: 10 μM tau, chaperone 1:1 molar ratio (10 μM), heparin 44 µg/mL, 37 °C, Dulbecco's PBS pH 7.4
Description: as §2

K18 tau [6] = assay: Competitive ELISA on immobilized K18 tau saturated with biotin-labelled Hsc70; parameters: species or system human; conditions: Supplementary Figure 3A, binding not saturable, read-out: IC50 (estimated), competition with biotin-labelled Hsc70 for immobilized K18 tau
Text: B. Hsp27 ACD binding to K18tau cannot be measured by ITC
A. Hsp27 ACD has a weak affinity for tau,by ELISA
C. The interaction is also estimated tobe weak by NMR titration[Competitor], uM
D. NMR titration of VQIVYK peptide into
Supplementary Figure 3. Hsp27 ACD has a weak affinity for K18 tau. (A) K18 tau was immobilized onto ELISA plates and saturated with biotin-labelled, human Hsc70, which shares binding sites with Hsp27 ACD in the MTBRs. Competition with unlabelled Hsc70 (control) or Hsp27 ACD was then carried out. Hsp27 ACD was estimated to have an IC50 > 100 µM. (B) Binding of Hsp27 ACD to K18 tau was not able to be measured by ITC, due to solubility limits. (C) NMR titrations (see Figure S5A) also […]
interaction. CSPs of Hsp27 ACD in the presence of 3.3-fold molar excess of PHF6* peptide (500 µM).
(also on this page, place not known: [Competitor], OD450 tau, K18 tau to be by 4 normalized CSP [((δN/5) +γH ); ppm] 2 0.52 CSP (PPM) titration Hsp27) […]

[7] = Fig. 4a, Boltzmann fit, mean ± SD of three independent experiments

Kd (Hsp27 WT): does not bind
pKd (Hsp27 3D): < 4.30
pKd (ΔNTD GPG): 4.84
Substance: EITIPVTHE [Hsp27 IPV H]

Binding to 15N K18 tau by NMR (peak broadening / CSPs) (K18 tau [2]): bound to K18
Substance: GPG: Hsp27 with isoleucine and valine of the IPV mutated to glycine
TM [1, 7]: 66.8 ± 0.3 °C

Binding to Hsp27 ACD by NMR titration (chemical shift changes) (Hsp27 ACD [3]; listed as VQIVYK peptide): weak interaction; also recorded: weak/no
Substance: VQIVYK [PHF6* peptide, 6-mer PHF6* peptide from tau]
Binding to Hsp27 ACD by NMR titration (chemical shift changes) (Hsp27 ACD [3]): unable to produce saturable chemical shift changes

BAG3 binding (BAG3): deficient in BAG3 binding
Substance: L157A ACD: Hsp27 ACD mutant L157A

N (binding stoichiometry) (Hsp27 ACD [4]): 0.90
pKd (Hsp27 ACD [4]; peptide (1 mM) titrated into Hsp27 ACD (100 µM), SEC buffer (50 mM sodium phosphate, 100 mM NaCl), mean ± SEM, minimum of three independent experiments, ND = no detectable binding): < 4.60
Substance: EITIPVTFE [Hsp27 IPV]

Substance: Hsp27 X: WT Hsp27 cross-linked with gluteraldehyde
Effect on aggregation of 0N4R tau (ThT fluorescence) (0N4R tau): severely compromised
Effect on aggregation of K18 tau (ThT fluorescence) (K18 tau [5]): severely compromised

N (binding stoichiometry) (Hsp27 ACD [4]): 0.65
Substance: EIAIPVTHE [T180A]

Substance: ΔNTD: Hsp27 with NTD deleted, residues 80–205
Effect on aggregation of 0N4R tau (ThT fluorescence) (0N4R tau): ablated Hsp27’s ability to delay tau aggregation
Effect on aggregation of K18 tau (ThT fluorescence) (K18 tau [5]): ablated Hsp27’s ability to delay tau aggregation

Binding to 15N K18 tau by NMR (peak broadening / CSPs) (K18 tau [2]): binds to K18’s aggregation motifs
Substance: 3D: pseudo-phosphorylation mutant; S15, S78 and S82 replaced with aspartate
Effect on aggregation of 0N4R tau (ThT fluorescence) (0N4R tau): retains the ability to prevent tau aggregation
TM ([1]; Supplementary Figure 8A): 72.2 ± 0.85 °C

Binding to 15N K18 tau by NMR (peak broadening / CSPs) (K18 tau [2]): does not
Binding to 15N K18 tau by NMR (peak broadening / CSPs) (K18 tau [2]; listed as full-length Hsp27): no broadening or CSPs
Substance: WT: full-length human Hsp27
Effect on aggregation of 0N4R tau (ThT fluorescence) (0N4R tau): prevents aggregation
TM [1, 7]: 73.1 ± 1.1 °C
TM ([1]; Supplementary Figure 8A): 72.2 ± 1.0 °C
Effect on aggregation of K18 tau (ThT fluorescence) (K18 tau [5]): prevents aggregation

pIC50 (K18 tau [6]): < 4.00
Binding to 15N K18 tau by NMR (peak broadening / CSPs) (K18 tau [2]): weak and unsaturable
Substance: Hsp27 ACD: α-crystallin domain of human Hsp27 (residues Q80–S176)
Effect on aggregation of 0N4R tau (ThT fluorescence) (0N4R tau): no effect
Effect on aggregation of K18 tau (ThT fluorescence) (K18 tau [5]): no effect
